From ChEMBL document CHEMBL4715881, “ATB-targeted delivery of triptolide prodrugs for safer and more effective pancreatic cancer therapy” (Bioorg Med Chem Lett, 2021) come the findings set out here.

In series [1] the test system is MIA PaCa-2. Put plainly: Cytotoxicity against human MIA PaCa-2 cells assessed as reduction in cell viability by MTT assay. Format: functional, cell-based.
Series [2] can be described thus: Cytotoxicity against human HPDE cells assessed as reduction in cell viability by MTT assay. Type of series: cell-based.
In series [3] the test system is ASPC1. As to the kind of experiment: Cytotoxicity against human ASPC1 cells assessed as reduction in cell viability by MTT assay. Format: functional, cell-based.
Series [4] concerns ASPC1. Put plainly: Cytotoxicity against human ASPC1 cells assessed as reduction in cell viability pretreated with glycine for 30 mins by MTT assay. Type of series: functional, cell-based.
The nature of series [5]: Drug uptake in human ASPC1 cells in presence of alpha-Methyl-D,L-tryptophan. Format: ADME, cell-based.
Series [6] can be described thus: Drug uptake in human MIA PaCa-2 cells. Type of series: ADME, cell-based.
The nature of series [7]: Drug uptake in human MIA PaCa-2 cells assessed as Km. Type of series: ADME, cell-based.
Series [8] in a line: Stability in human ASPC1 cells homogenate assessed as half life. Type of series: ADME, cell-based. Conditions: ASPC1 cell homogenate.
A short description of series [9]: Stability in rat liver homogenate assessed as half life. Format: ADME, tissue-based.
Series [10] is described as follows: Drug uptake in human ASPC1 cells assessed as Vmax measured at 10 mins. Type of series: ADME, cell-based. Conditions: aspc1, 10 min.
A short description of series [11]: Drug uptake in human ASPC1 cells. Type of series: ADME, cell-based.
Series [12] in a line: Drug uptake in human MIA PaCa-2 cells in presence of lysine. Type of series: ADME, cell-based.
Series [13] in a line: Drug uptake in human ASPC1 cells in presence of glutamate. Format: ADME, cell-based.
The nature of series [14]: Drug uptake in human MIA PaCa-2 cells assessed as Vmax measured at 10 mins. Format: ADME, cell-based. Conditions: mia paca-2, 10 min.
A short description of series [15]: Drug uptake in human ASPC1 cells assessed as Km. Type of series: ADME, cell-based.
Series [16] in a line: Drug uptake in human MIA PaCa-2 cells in presence of glycine. Type of series: ADME, cell-based.
A short description of series [17]: Drug uptake in human MIA PaCa-2 cells in presence of glutamate. Format: ADME, cell-based.
The nature of series [18]: Drug uptake in human MIA PaCa-2 cells in presence of alpha-Methyl-D,L-tryptophan. Format: ADME, cell-based.
For series [19], the system named is MIA PaCa-2. As to the kind of experiment: Cytotoxicity against human MIA PaCa-2 cells assessed as reduction in cell viability pretreated with glycine for 30 mins by MTT assay. Format: functional, cell-based.
The nature of series [20]: Drug uptake in human ASPC1 cells in presence of lysine. Format: ADME, cell-based.
The nature of series [21]: Drug uptake in human HPDE cells. Type of series: ADME, cell-based.
A short description of series [22]: Stability in rat plasma assessed as half life. Type of series: ADME, cell-free.
Series [23] in a line: Drug uptake in human ASPC1 cells in presence of glycine. Type of series: ADME, cell-based.

Activity calls are given as the source filed them. The calls are words filed in the database; no cut-off is given here.

Take `CC(C)[C@]12O[C@H]1[C@@H]1O[C@]13[C@]1(O[C@H]1C[C@H]1C4=C(CC[C@@]13C)C(=O)OC4)[C@@H]2O` [TRIPTOLIDE]: the outcome in the series on MIA PaCa-2 [1] and with ASPC1 [3] was Active. Besides, the Activity entry in series [2] was “Toxic”.
Take `CC(C)[C@]12O[C@H]1[C@@H]1O[C@]13[C@]1(O[C@H]1C[C@H]1C4=C(CC[C@@]13C)C(=O)OC4)[C@@H]2OC(=O)[C@@H](N)Cc1c[nH]c2ccccc12`: the result in the series with MIA PaCa-2 [1] and in the series on ASPC1 [3] was Active. Also, the result in the series on ASPC1 [4] and in the series with MIA PaCa-2 [19] was inactive. The Activity entry in series [2] was “Non-Toxic”. The Drug uptake result in series [5] is “Not Active”; in series [6] it was “Active”; in series [11], “Active”; in series [12], “Not Active”; in series [13], “Active”; in series [16], “Not Active”. Further, the Drug uptake entry was “Active” in series [17]; “Not Active” in series [18]; “Not Active” in series [20]; “Not Active” in series [21]; “Not Active” in series [23]. For the same compound, the Km in [7] worked out at 96 µM; in series [15] it was 105 µM. For the same compound, the half-life in series [8] is 8 h; in series [9], 6 h; in series [22] it was more than 10 h. The Vmax in [10] amounted to 5.874 nmol/mg; in [14], 5.072 nmol/mg.
On to `CC(C)[C@]12O[C@H]1[C@@H]1O[C@]13[C@]1(O[C@H]1C[C@H]1C4=C(CC[C@@]13C)C(=O)OC4)[C@@H]2OC(=O)[C@@H](N)CCCCN`, for which the outcome in the series with MIA PaCa-2 [1] and in the series on ASPC1 [3] was Active. The result in the series with ASPC1 [4] and with MIA PaCa-2 [19] was inactive. In series [2], the Activity entry is reported as “Non-Toxic”. Further, the Drug uptake entry in [5] was “Not Active”; in [6], “Active”; in series [11], “Active”; in [12], “Not Active”; in series [13], “Active”; in [16], “Not Active”. Moreover, the Drug uptake entry in [17] is reported as “Active”; in [18], “Not Active”; in [20], “Not Active”; in series [21], “Not Active”; in [23], “Not Active”. The Km in [7] worked out at 124 µM; in series [15], 121 µM. In addition, the half-life is 8 h in series [8], 6 h in series [9] and more than 10 h in [22]. Also, the Vmax in [10] was 3.41 nmol/mg; in series [14], 3.516 nmol/mg.
Regarding `CC(C)[C@H](N)C(=O)O[C@@H]1[C@@]2(C(C)C)O[C@H]2[C@@H]2O[C@]23[C@]12O[C@H]2C[C@H]1C2=C(CC[C@@]13C)C(=O)OC2`, the result in the series with MIA PaCa-2 [1] and in the series with ASPC1 [3] was Active. For the same compound, the outcome in the series with ASPC1 [4] and in the series on MIA PaCa-2 [19] was inactive. Besides, the Activity entry in series [2] was “Non-Toxic”. The Drug uptake entry in series [5] is “Not Active”; in [6], “Active”; in [11], “Active”; in [12], “Not Active”; in [13], “Active”; in [16], “Not Active”. For the same compound, the Drug uptake entry in series [17] is given as “Active”; in [18], “Not Active”; in [20], “Not Active”; in series [21] it was “Not Active”; in [23], “Not Active”. Also, the Km amounted to 112 µM in [7] and 130 µM in [15]. In addition, the half-life in series [8] was 8 h; in series [9], 6 h; in [22], more than 10 h. Also, the Vmax in series [10] is recorded as 4.391 nmol/mg; in series [14], 4.132 nmol/mg.
